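How tested: cells in 96-well plates exposed to compound for 48 hours at five concentrations. TGI: total growth inhibition.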
Assays:
Experiment in all cases: inhibition of tumour cell growth, NCI panel, 48 h
[1] = system: A549 NSCLC
[2] = system: ACHN renal
[3] = system: CCRF-CEM leukemia
[4] = system: EKVX NSCLC
[5] = system: HCT-15 colon
[6] = system: KM12 colon
[7] = system: M14 melanoma
[8] = system: MCF7 breast
[9] = system: MDA-N
[10] = system: NCI-H460 lung
[11] = system: NCI-H522 lung
[12] = system: NCI/ADR-RES ovarian
[13] = system: PC-3 prostate
[14] = system: SNB-75 CNS
[15] = system: SR leukemia
[16] = system: T-47D breast
[17] = system: U251 CNS
[18] = system: UACC-62 melanoma

`C[C@]12CC[C@H]3[C@@H](CC=C4C[C@@H](N5CCCC5)CC[C@@]43C)[C@@H]1C[C@H](N1CCOCC1)[C@@H]2O` was tested, and the TGI [1] was greater than 100 µM, the TGI [2] was greater than 100 µM and the TGI [3] was greater than 100 µM. For the same compound, the TGI [4] was greater than 100 µM, the TGI [5] was greater than 100 µM and the TGI [6] was greater than 100 µM. The TGI [7] was greater than 10 µM, the TGI [8] was greater than 10 µM and the TGI [9] was greater than 100 µM. For the same compound, the TGI [10] was greater than 100 µM, the TGI [11] was greater than 100 µM and the TGI [12] was greater than 100 µM. The TGI [13] was greater than 100 µM, the TGI [14] was greater than 100 µM and the TGI [15] was 71.5 µM. For the same compound, the TGI [16] was greater than 100 µM, the TGI [17] was greater than 100 µM and the TGI [18] was greater than 100 µM.

With `COC(=O)C1C/C(=C/N(C)C)C(=S)N1` (centres undefined) the TGI [1] was greater than 100 µM, the TGI [2] was greater than 100 µM and the TGI [3] was greater than 100 µM. It also gave a TGI [4] greater than 100 µM, a TGI [5] greater than 100 µM and a TGI [6] greater than 100 µM. It also gave a TGI [7] greater than 100 µM, a TGI [8] greater than 100 µM and a TGI [9] greater than 100 µM. It also gave a TGI [10] of 35.4 µM, a TGI [11] greater than 100 µM and a TGI [12] greater than 100 µM. The TGI [13] was greater than 100 µM, the TGI [14] was greater than 100 µM and the TGI [15] was greater than 100 µM. It also gave a TGI [16] greater than 100 µM, a TGI [17] greater than 100 µM and a TGI [18] greater than 100 µM.

In the case of `Nn1c(COc2cccc(OCc3n[nH]c(=S)n3N)c2)n[nH]c1=S`, the TGI [1] is reported as greater than 100 µM, the TGI [2] is reported as greater than 100 µM and the TGI [3] is reported as greater than 100 µM. The TGI [4] was greater than 100 µM, the TGI [5] was greater than 100 µM and the TGI [6] was greater than 100 µM. The TGI [7] was greater than 100 µM, the TGI [8] was greater than 100 µM and the TGI [9] was greater than 100 µM. It also gave a TGI [10] greater than 100 µM, a TGI [11] greater than 100 µM and a TGI [12] greater than 100 µM. For the same compound, the TGI [13] was greater than 100 µM, the TGI [14] was greater than 100 µM and the TGI [15] was 34.6 µM. For the same compound, the TGI [16] was greater than 100 µM, the TGI [17] was greater than 100 µM and the TGI [18] was greater than 100 µM.

Work on `CN(C)CCNC(=O)c1cccc2c(NCCN(C)C)c3ccccc3nc12` yielded a TGI [1] of 6.05 µM, a TGI [2] of 9.59 µM and a TGI [3] greater than 100 µM. For the same compound, the TGI [4] was 8.03 µM, the TGI [5] was 24.7 µM and the TGI [6] was 11.8 µM. It also gave a TGI [7] of 18.6 µM, a TGI [8] of 12.8 µM and a TGI [9] of 8.18 µM. For the same compound, the TGI [10] was 3.91 µM, the TGI [11] was 2.97 µM and the TGI [12] was 25.7 µM. For the same compound, the TGI [13] was 7.34 µM, the TGI [14] was 11.1 µM and the TGI [15] was 3.45 µM. The TGI [16] was greater than 83.6 µM, the TGI [17] was 8.72 µM and the TGI [18] was 9.19 µM.

Compound `COC(=O)/C=C\n1c(C)cc(=O)[nH]c1=O` has a TGI [1] greater than 100 µM, a TGI [2] greater than 100 µM and a TGI [3] greater than 100 µM. For the same compound, the TGI [4] was greater than 100 µM, the TGI [5] was greater than 100 µM and the TGI [6] was greater than 100 µM. The TGI [7] was greater than 100 µM, the TGI [8] was 89 µM and the TGI [9] was greater than 100 µM. The TGI [10] was greater than 100 µM, the TGI [11] was greater than 100 µM and the TGI [12] was greater than 100 µM. The TGI [13] was greater than 100 µM, the TGI [14] was greater than 100 µM and the TGI [15] was greater than 100 µM. The TGI [16] was greater than 100 µM, the TGI [17] was greater than 100 µM and the TGI [18] was greater than 100 µM.

`COC(=O)NCCc1[nH]nc2c1C(=O)C=C(N1CCOCC1)C2=O` gave a TGI [1] greater than 100 µM, a TGI [2] greater than 100 µM and a TGI [3] greater than 100 µM. For the same compound, the TGI [4] was greater than 100 µM, the TGI [5] was greater than 100 µM and the TGI [6] was greater than 100 µM. It also gave a TGI [7] greater than 100 µM, a TGI [8] greater than 100 µM and a TGI [9] greater than 100 µM. The TGI [10] was greater than 100 µM, the TGI [11] was greater than 100 µM and the TGI [12] was greater than 100 µM. For the same compound, the TGI [13] was greater than 100 µM, the TGI [14] was greater than 100 µM and the TGI [15] was greater than 100 µM. It also gave a TGI [16] greater than 100 µM, a TGI [17] greater than 100 µM and a TGI [18] greater than 100 µM.

In the case of `O=S(=O)(O)c1cc(O)c2c(N=Cc3ccccc3O)cc(S(=O)(=O)O)cc2c1`, the TGI [1] is reported as greater than 100 µM, the TGI [2] is reported as greater than 100 µM and the TGI [3] is reported as greater than 100 µM. It also gave a TGI [4] greater than 100 µM, a TGI [5] greater than 100 µM and a TGI [6] greater than 100 µM. For the same compound, the TGI [7] was greater than 100 µM, the TGI [8] was greater than 100 µM and the TGI [9] was greater than 100 µM. It also gave a TGI [10] greater than 100 µM, a TGI [11] greater than 100 µM and a TGI [12] greater than 100 µM. The TGI [13] was greater than 100 µM, the TGI [14] was greater than 100 µM and the TGI [15] was greater than 100 µM. It also gave a TGI [16] greater than 100 µM, a TGI [17] greater than 100 µM and a TGI [18] greater than 100 µM.

In the case of `Nc1nc(Cl)c(N)c(NCC2(CO)CC(OCc3ccccc3)C2)n1` (centres undefined), the TGI [1] is reported as greater than 100 µM, the TGI [2] is reported as greater than 100 µM and the TGI [3] is reported as greater than 100 µM. The TGI [4] was greater than 100 µM, the TGI [5] was greater than 100 µM and the TGI [6] was greater than 100 µM. For the same compound, the TGI [7] was greater than 100 µM, the TGI [8] was greater than 100 µM and the TGI [9] was greater than 100 µM. For the same compound, the TGI [10] was greater than 100 µM, the TGI [11] was greater than 100 µM and the TGI [12] was greater than 100 µM. It also gave a TGI [13] greater than 100 µM, a TGI [14] greater than 100 µM and a TGI [15] greater than 100 µM. The TGI [16] was greater than 100 µM, the TGI [17] was greater than 100 µM and the TGI [18] was greater than 100 µM.

With `CCCSc1ccc2[nH]c(N3C(=O)/C(=C/c4ccco4)N=C3c3ccccc3)cc2c1` the TGI [1] was greater than 50 µM, the TGI [2] was greater than 50 µM and the TGI [3] was greater than 50 µM. For the same compound, the TGI [4] was greater than 50 µM, the TGI [5] was greater than 50 µM and the TGI [6] was greater than 50 µM. For the same compound, the TGI [7] was greater than 50 µM, the TGI [8] was greater than 50 µM and the TGI [9] was 20.1 µM. The TGI [10] was greater than 50 µM, the TGI [11] was 37.8 µM and the TGI [12] was greater than 50 µM. It also gave a TGI [13] greater than 50 µM, a TGI [14] greater than 50 µM and a TGI [15] greater than 50 µM. For the same compound, the TGI [16] was greater than 50 µM and the TGI [18] was greater than 50 µM.

Compound `COC(=O)CCC(=O)NC1=C(Nc2ccc(OC)cc2)C(=O)c2ccccc2C1=O` has a TGI [1] of 29.7 µM, a TGI [2] of 54.5 µM and a TGI [3] greater than 85.2 µM. The TGI [4] was 38.3 µM, the TGI [5] was 21.4 µM and the TGI [6] was 45.5 µM. The TGI [7] was 19.7 µM, the TGI [8] was 18.8 µM and the TGI [9] was 3.44 µM. It also gave a TGI [10] of 21.1 µM, a TGI [11] of 24.3 µM and a TGI [12] of 60.3 µM. For the same compound, the TGI [13] was greater than 92.2 µM, the TGI [14] was 21.2 µM and the TGI [15] was greater than 75.9 µM. The TGI [16] was 40.4 µM, the TGI [17] was 57.5 µM and the TGI [18] was 7.67 µM.

Reference: PubChem BioAssay (NCI)
